# Laboratory results taken from US20230157282A1, “Synergistic Preservative/Personal Care Composition With A Polyglycerol Ester” (ARCH UK BIOCIDES LTD, priority 2020, published 2023).
# System: Pseudomonas aeruginosa ATCC 15442
# Test: Suspension test: log reduction of Pseudomonas aeruginosa after a specified contact time
# Format: cell-based
# Procedure: The target organism Pseudomonas aeruginosa ATCC 15442 was taken from freezer stocks and grown for 24 hours on tryptone soy agar (TSA) at 37° C. A second subculture was produced from the first and grown with the same conditions. A test suspension was then created by adding loopfuls of organism to tryptone buffered saline and adjusting the cell concentration to 1×10^8 and 5×10^8 CFU/ml using an internally established calibration curve spectrophotometer at a wavelength of 600 nm. To establish the precise CFU/ml a 1 ml aliquot was then taken from the test suspension and serially diluted down to 10^−6 and 10^−7, 1 ml of each dilution was then plated in duplicate using the pour plate method on to TSA. The plates were then incubated for 24 hours at 37° C. and enumerated.
# For each Active Ingredient tested a series of 3 samples were prepared in sterile distilled water;
# Test sample 1—Active Ingredient alone (to measure basic efficacy of the Active Ingredient)
# Test sample 2—Active Ingredient in combination with polyglyceryl-10 caprylate/caprate (to measure the efficacy of the combination of active ingredient and polyglycerol ester)
# Control—A control sample of polyglyceryl-10 caprylate/caprate was prepared in deionized water to measure the efficacy of polyglycerol ester alone.
# Each test sample was prepared at a concentration 10% higher than that of the target concentration to account for the dilution effect from the addition of the test organism suspension during the test procedure.
# A test mixture was prepared by adding a 0.1 ml aliquot of test organism suspension to a tube followed by 0.9 ml of test sample (prepared as above). The combination was then mixed and a timer started immediately.
# Upon achieving the specified contact time the test mixture was deactivated by adding a 0.1 ml aliquot of the test mixture to 0.9 ml of neutralizing broth and the whole solution mixed. The solution was left for 5 minutes to ensure the action of the active ingredient was effectively neutralized.
# To quantify the surviving number of organisms in the neutralized test mixture, 4×0.025 ml aliquots were taken and spot plated onto the surface of dried TSA. The plates were then incubated for 24 hours at 37° C.
# For spot plating, colonies from the incubated plates were enumerated using the lower count limit of <1 and the upper count limit of >150. […] For the upper limit, if 156 colonies were counted on a plate, >150 would be recorded and 150 would be used for the calculation.
# [formula] • N0 is the number of cells per ml in test mixture at the beginning of contact time. It is one-tenth of the weighted mean of N due to the tenfold dilution by the addition of the test product.
# Enumeration and Calculation of T (Test Mixture) • First, the mean average of cfu per 0.025 ml spots was established using the below calculation;
# Log Reduction Calculations (N0− T) • Before calculating the log reduction both N0 and T were converted into a logarithm base 10 value. For example;
# To calculate the final log reduction the following calculation was used;
# The test procedure outlined above was used to test for synergy between polyglyceryl-10 caprylate/caprate (PG10CC) and the various active ingredients listed in Table 1. Varying concentrations were prepared and were tested at the times listed in Table 1 for the presence of Pseudomonas aeruginosa.
compound,measurement,setting,value
O=c1[nH]sc2ccccc12,Log Reduction,"Benzisothiazoline 100 ppm, contact time 48 hours",3.84
O=C(O)c1ccccc1 [Benzoic acid],Log Reduction,"Benzoic acid 2000 ppm, contact time 2 hours",<2.85
O=C(O)CO [Glycolic acid],Log Reduction,"Glycolic acid 1000 ppm, contact time 30 minutes",2.85
CC(O)C(=O)O (stereo not drawn) [Lactic acid],Log Reduction,"Lactic acid 2000 ppm, contact time 3 hours",4.03
[H]/N=C(\N/C(=N/[H])NCCCCCCNC(=N)NC(=N)Nc1ccc(Cl)cc1)Nc1ccc(Cl)cc1 [chlorohexidine],Log Reduction,"chlorohexidine 64 ppm, contact time 5 minutes",3.44
Zinc pyrithione,Log Reduction,"Zinc pyrithione 400 ppm, contact time 7 days",2.88
